Patent US20170335336A1, “USE OF A SELECTABLE MARKER GENE IN SUGAR BEET PROTOPLASTS TRANSFORMATION METHOD AND SYSTEM” (SESVanderHave N.V., priority 2014, published 2017)

Key:
[1] = test system: non-transformed protoplasts; test: control experiment: non-transformed protoplasts on selection media; assay type: cell-based, sugar beet (Beta vulgaris L.)
Protocol: Transformation experiments were performed using plasmid DNA (pS189) according to the standard PEG transformation system under two selection media containing 5×10^−9M foramsulfuron (ALF) and 5×10^−11M ethoxysulfuron (ALE) concentrations. The selection of only the transformed protoplasts were evidenced by the number of calli recovered from each transformation experiment. […] So far seven transformation experiments were performed for ALF and six experiments for ALE. From ALF experiments, about 1799 buds and 89 regenerated plantlets were obtained (Table 3).

[2] = test system: wild type sugar beet protoplasts; test: killing curve for optimal herbicide concentration; assay type: cell-based, sugar beet (Beta vulgaris L.); settings: killing curve (Table 1 and Table 2)
Protocol: The optimal herbicide (ALS inhibitor) concentration used in the method according to the invention was determined from a killing curve concentration for two preferred ALS inhibitors (Foramsulfuron and Ethoxysulfuron) and was established as follows: • To use optimal concentration of herbicide for selection of transformed sugar beet protoplasts, killing curve was developed on wild type sugar beet protoplasts with the following concentrations (Table 1 and Table 2). Based on the results obtained from the killing curve experiments concentration of 5×10^−9M for foramsulfuron and 5×10^−11M for ethoxysulfuron were selected for using with transformed sugar beet protoplasts with pS189 plasmid DNA carrying the mutated BvALS nucleotide sequence.

Row | SMILES | calli / survival of cells on selection medium ([1]; selection medium containing 5×10^−11M ethoxysulfuron (ALE)) | concentration selected from killing curve experiments for selection of transformed protoplasts [2] [nM] | calli / survival of cells on selection medium ([1]; selection medium containing 5×10^−9M foramsulfuron (ALF))
1 | CCOc1ccccc1OS(=O)(=O)NC(=O)Nc1nc(OC)cc(OC)n1 [ethoxysulfuron] | did not result in any calli or survival of cells | 0.05 | –
2 | COc1cc(OC)nc(NC(=O)NS(=O)(=O)c2cc(NC=O)ccc2C(=O)N(C)C)n1 [foramsulfuron] | – | 5 | did not result in any calli or survival of cells
